Measurements taken from article PMC11464777, “Approved drugs successfully repurposed against Leishmania based on machine learning predictions” (Frontiers in Cellular and Infection Microbiology, 2024).
Converted amounts (≈) assume the structure as drawn. Like-named read-outs stand apart in the source and are kept apart here.

Tests used:
[1] = tested on: Leishmania (Viannia) braziliensis; set-up: method as in Cazorla et al., 2004; details: hamsters infected with Leishmania (Viannia) braziliensis, versus Glucantime; ref Cazorla et al., 2004; cited from earlier work
[2] = tested on: L. infantum Drep-14 intracellular amastigotes; assay: Anti-amastigote assay in THP-1-derived macrophages, L. infantum Drep-14; format: cell-based, Leishmania infantum; details: for IC50: Leishmania infantum, Macrophage, Drep-14, intramacrophage, 72 h
Procedure: (§1) THP-1-derived macrophages (5 × 10^4/well) were seeded in each 8-well Labtek slides (Thermo Scientific). Adherent macrophages were obtained as described above, then infected with stationary phase promastigotes of each strain at a ratio 10:1 (10 parasites/macrophage) in RPMI medium containing penicillin (100 U/mL) and streptomycin (100 μg/mL) with 10% fetal bovine serum (Gibco, Brazil) at 37°C in 5% CO2 for 24 h. […] Non-infected control cells were incubated in a supplemented RPMI medium containing 1% DMSO. After 72h of incubation, cells were fixed and stained using May-Grunwald-Giemsa staining with RAL 555 Kit (RAL DIAGNOSTICS, France), following the manufacturer’s instructions. The percentage of infected cells and the total number of internalized parasites per 100 macrophages were determined under immersion oil (magnification of 1000X) using light microscopy. The percentage of amastigotes viability was expressed as the percentage of total number of internalized parasites within treated cells relative to the total number of internalized parasites within control cells treated with 1% DMSO, and calculated as follows:
(§2) Relative amastigote viability (%) = [(number of amastigotes/100 treated cells)/(number of amastigotes/100 treated cells with1% DMSO)] * 100
(§3) The relative percentage of amastigote viability was evaluated to calculate half inhibitory concentrations (IC50). The mean IC50 values were determined by plotting the curves of the logarithm of compound concentrations versus the relative amastigote viability of three independent experiments performed in two technical replicates for each compound fitted into a nonlinear regression model, using GraphPad Prism version 8.0.1. Selectivity Index (SI) values were calculated as the ratio between cytotoxicity and activity against amastigotes and determined for each compound as follows: SI= CC50/IC50.

[3] = Cytotoxicity assay towards THP-1-derived macrophages (MTT); format: cell-based, human; details: human, THP-1-derived macrophages (PMA-differentiated); for CC50 at 72 h: 72 h of treatment, uninfected cells, MTT
Procedure: (§4) Louis, MO, USA). The PMA-treated THP-1 cells were maintained in this condition for 24 h, followed by a 24 h of rest period after the removal of PMA. […] The cytotoxicity towards THP-1-derived macrophages was assessed after 24, 48 and 72 hours of incubation by MTT assay as described above. […] The percentage of viable cells was calculated from the Optical Density at 570 nm as follows: […]

[4] = tested on: THP-1-derived macrophages; assay: as above; format: cell-based, human; details: 24, 48, 72 h
Procedure: as §4

[5] = tested on: L. major Empa-12 promastigotes; assay: MTT-based promastigote viability assay, L. major Empa-12; format: cell-based; details: Leishmania major, Empa-12, 72 h, MTT
Text: (§5) Three Tunisian laboratory strains already described ([Oualha et al., 2019]), originally isolated from distinct clinical manifestations were used in this study: (i) L. infantum LV50 MHOM/TN/94/LV50) strain originating from a bone marrow of a visceral leishmaniasis patient, (ii) L. infantum Drep-14 (MHOM/TN/96/Drep-14) strain isolated from a lesion of a sporadic cutaneous leishmaniasis patient and (iii) L. major Empa-12 (MHOM/TN/2012/Empa-12) strain isolated from a zoonotic cutaneous leishmaniasis patient. Stocks of these parasites obtained after passage through BALB/c mice were used as previously described ([Oualha et al., 2019]). Thawed cryopreserved parasites were cultured at 22°C in RPMI-1640/Glutamax medium (Gibco BRL, Germany) containing penicillin (100 U/mL) and streptomycin (100 μg/mL) supplemented with 10% heat-inactivated Fetal Bovine Serum (FBS) (Gibco BRL, Germany).
(§6) The effect of the selected compounds on the viability of Leishmania promastigotes was evaluated by a colorimetric MTT (3-(4,5-dimethylthiazol-2yl)-2,5-diphenyl tetrazolium bromide) assay. It consists in the reduction of tetrazolium salt to a […] crystal (blue formazan) by the succinate dehydrogenase activity of mitochondria in living cells, which can be quantified by spectrophotometry. Briefly, 90 μL of promastigotes (5 × 10^5 parasites/well) harvested from the stationary growth phase of each strain were added to a 96-well culture plate and incubated with 10 μL of a range of serial dilutions of the selected compounds in technical replicates (final concentration of 1% DMSO per well) ([Ioset et al., 2009]; [Harigua-Souiai et al., 2018]). […] After 72h of incubation at 22°C, 25 μl of MTT solution (5 mg/mL) was added to each well and incubated at 22°C for 4h. Then, 150 μl of DMSO was added to each well to dissolve the blue formazan and the optical density (OD) was measured at 570 nm with a microplate reader ([…], Labsystems). Promastigotes incubated in complete medium containing 1% DMSO were used as negative control. The standard anti-Leishmania drug, Amphotericin B was used as a positive control. All experiments were performed in two technical replicates and repeated three times in independent experiments. The mean percentage of promastigotes viability was calculated from the Optical Density at 570 nm as follows:
(§7) Promastigote viability (%)= [(ODcompound− ODblank)/(ODnegative control −ODblank)]*100
(§8) Results were expressed as the mean value of the percentage of promastigotes viability ± standard deviation (SD).

[6] = tested on: L. major and L. infantum amastigotes; assay: Anti-amastigote assay, stated across the three strains; format: cell-based, Leishmania infantum, Leishmania major; details: 72 h, LV50, Drep-14, Empa-12; intramacrophage, 72 h; read-out: Amastigotes IC50, span over the three strains
Procedure: as §1, §2, §3

[7] = tested on: L. infantum Drep-14 promastigotes; assay: microbe, parasite or virus in culture; format: cell-based; details: Leishmania infantum, 72 h
Text: as §5, §6, §7, §8

[8] = tested on: L. major Empa-12 intracellular amastigotes; assay: Anti-amastigote assay in THP-1-derived macrophages, L. major Empa-12; format: cell-based, Leishmania major; details: for IC50: Leishmania major, Macrophage, Empa-12, intramacrophage, 72 h
Procedure: as §1, §2, §3

[9] = tested on: L. infantum (LV50 and Drep-14) and L. major (Empa-12) promastigotes; assay: MTT promastigote viability assay, stated across the three strains; format: cell-based, Leishmania infantum, Leishmania major; details: 72 h; for Effect on promastigote viability: three strains, at the tested concentrations
Text: as §5, §6, §7, §8

[10] = tested on: L. infantum LV50 intracellular amastigotes; assay: Anti-amastigote assay in THP-1-derived macrophages, L. infantum LV50; format: cell-based, Leishmania infantum; details: for IC50: Leishmania infantum, Macrophage, LV50, intramacrophage, 72 h
Procedure: as §1, §2, §3

[11] = tested on: L. infantum LV50 promastigotes; assay: MTT-based promastigote viability assay, L. infantum LV50; format: cell-based; details: Leishmania infantum, LV50, 72 h, MTT
Text: as §5, §6, §7, §8

[12] = read-out: Amastigotes IC50 (in brackets) (converted)
[13] = read-out: Promastigotes IC50 (in brackets) (converted)

In the case of `CCN(CC)CCOC(=O)c1ccc(N)cc1` [Procaine], the “Efficacy of intralesional treatment in hamsters” value [1] is listed as “lower efficacy”.

In the case of `CCCC(=O)Nc1ccc(OCC(O)CNC(C)C)c(C(C)=O)c1` (centres unmarked) [Acebutolol], the “Selectivity Index (SI)” value ([2]; CC50 THP-1 / IC50 amastigotes Drep-14, 72 h) is reported as > 14.45, the IC50 ([2]; read-out: Amastigotes IC50) is reported as 13.8 ± 1.41 µg/mL and the IC50 [2, 12] is reported as 37.1 µM. For the same molecule, the CC50 at 72 h ([3]; read-out: THP-1-derived macrophages CC50) was > 200 µg/mL, the CC50 at 72 h ([3]; read-out: THP-1-derived macrophages CC50 (in brackets) (converted)) was > 536 µM and the viability at 72 h, 200 µg/mL ([3]; at 200 µg/mL, 72 h, read-out: Macrophage viability) was 90 to 100%. For the same molecule, the “Cytotoxicity on THP-1-derived macrophages” value [4] was “no significant cytotoxicity”, the IC50 ([5]; read-out: Promastigotes IC50) was 103 ± 10.9 µg/mL and the IC50 [5, 13] was 276 µM. It also gave an IC50 [6] of 13.8 to 66.8 µg/mL (≈ 41.1 to 199 µM), an IC50 ([7]; read-out: Promastigotes IC50) of 69.3 ± 5.7 µg/mL and an IC50 ([7]; read-out: Promastigotes IC50 (in brackets)) of 186 µM. The “Selectivity Index (SI)” value ([8]; CC50 THP-1 / IC50 amastigotes Empa-12, 72 h) was > 8.98, the IC50 ([8]; read-out: Amastigotes IC50) was 22.3 ± 1.59 µg/mL and the IC50 [8, 12] was 59.8 µM. For the same molecule, the IC50 ([9]; Leishmania infantum, LV50, Drep-14, Empa-12, MTT, read-out: Promastigotes IC50, span over the three strains) was 69.3 to 146 µg/mL (≈ 206 to 433 µM), the “Effect on promastigote viability” value [9] was “dose-dependent decrease of parasite viability” and the “Selectivity Index (SI)” value ([10]; CC50 THP-1 / IC50 amastigotes LV50, 72 h) was > 12.73. It also gave an IC50 ([10]; read-out: Amastigotes IC50) of 15.7 ± 2.75 µg/mL, an IC50 [10, 12] of 42.1 µM and an IC50 ([11]; read-out: Promastigotes IC50) of 146 ± 16.4 µg/mL. For the same molecule, the IC50 [11, 13] was 390 µM.

In the case of `CCc1cc(C(N)=S)ccn1` [Ethionamide], the “Effect on promastigote viability” value [9] is reported as “no effectiveness”.

For `NS(=O)(=O)c1cc2c(cc1Cl)N=C(CSCc1ccccc1)NS2(=O)=O` [Benzthiazide], the “Effect on promastigote viability” value [9] was “no effectiveness”.

In the case of `CCCSc1ccc2nc(NC(=O)OC)[nH]c2c1` [Albendazole], the “Effect on promastigote viability” value [9] is reported as “no effectiveness”.
